Results published in US9795588B2, “Mammalian TOR inhibitor” (Chang Gung University, priority 2016, dated 2017).

How the values were obtained:
[1] = tested on: Mouse adipocytes (3T3-L1); assay: Adipocyte differentiation, oil-red O staining; type: cell-based; details: 3T3-L1 co-treated with DMI, 8 days, FIG. 6
Procedure: Mouse adipocytes (3T3-L1) were co-treated with DMI (5 μM of dexamethasone, 0.5 mM of 3-isobutyl-1-methylxanthine, and 0.1724 mM of insulin) and different chemicals. After being cultured for 8 days, the cell media was removed and oil-red O staining was used to analyze these adipocytes' differentiation.

[2] = tested on: yeast cells; assay: Replicative life span of yeast cells (passage number); type: cell-based; details: YEPD media, 30° C.; FIG. 2
Procedure: A yeast colony was selected and cultured in a YEPD culture media. When the OD value of the media was at 0.6-0.8, 20 μl of the media containing different chemicals was added to a YEPD solid media, and then 20-30 yeast cells were selected using a tetrad dissection microscope manipulation system. The selected yeast cells were cultured at 30° C. for 3-5 hours to divide into first generation yeast cells. Afterwards, the first generation yeast cells were cultured at 30° C. for 3-5 hours to divide into second generation yeast cells. The culturing step was repeated until final generation yeast cells which cannot divide anymore existed. Finally, the yeast cells' passage number was counted according to the total division number.

[3] = tested on: human umbilical vein endothelial cells (HUVEC); assay: SA-βgal cellular aging assay in HUVEC; type: cell-based; details: corylin in different concentrations, successive generations, FIG. 3
Procedure: In addition, human umbilical vein endothelial cells (HUVEC) were treated with corylin in different concentrations, and the cells at this moment were called first generation cells. Second generation cells grew by culturing the first generation cells for 2-3 days, and then the second generation cells were treated with corylin in different concentrations. Third to Nth generation cells grew by repeating the culturing process. During each culture process, SA-βgal assay was used to analyze the responding generation cells. The more SA-βgal positive cells the cultured cells contained, the older the cultured cells were.

[4] = tested on: S6K phosphorylation; assay: S6K phosphorylation by Western blotting in U2OS cells; type: cell-based, human; details: 8 hours
Procedure: Human osteosarcoma (U2OS) cells were treated with different chemicals in different concentrations. After the cells were cultured for 8 hours, the protein therein was extracted. Finally, Western blotting assay was used to analyze the extracted protein. […] Moreover, human osteosarcoma cells were pre-treated with mammalian SIRT1 inhibitor EX-527 for 1 hour. Afterwards, those cells were treated with 100 μM corylin and cultured for 8 hours. Finally, Western blotting assay was used to analyze the protein extracted from those cells.

[5] = tested on: S6K phosphorylation caused by insulin; assay: Insulin-induced S6K phosphorylation by Western blotting; type: cell-based; details: human osteosarcoma cells, 400 nM insulin, 10 minutes; FIG. 7
Procedure: High concentration insulin can cause phosphorylation and thus cells are resistant to insulin, which is one cause for type II diabetes. In order to mimic type II diabetes, human osteosarcoma cells were cultured in 400 nM of insulin and different chemicals for 10 minutes. After which, Western blotting assay was used to analyze the protein in these cells.

[6] = tested on: ICAM-1 expression; assay: Lipopolysaccharide-induced ICAM-1 expression by Western blotting in HASMC; type: cell-based, human; details: corylin 24 hours then lipopolysaccharide 24 hours, FIG. 8
Procedure: Lipopolysaccharide can induce immune response on blood vessels. During immune response, blood vessels can also overexpress ICAM-1, which is one cause of cardiovascular disease. To mimic this disease, human aortic smooth muscle cells (HASMC) were treated with corylin in different concentrations and then cultured for 24 hours. After these cells were treated with lipopolysaccharide for 24 hours, the protein in these cells was extracted and analyzed by Western blotting assay.

[7] = tested on: Male C57BL/6 mice on high-fat diet; assay: High-fat diet mice: body, liver and white adipocytes tissue weights; type: in vivo, mouse; details: HFD mice, gavage 100 mg/kg, end of treatment
Procedure: (§1) Male C57BL/6 mice (8 weeks old) were purchased from the National Laboratory Animal Center. Mice were divided into three groups (n=6 each group): chow diet; high-fat diet (HFD, 60% ResearchDiet, D12492); and HFD gavage with corylin at 100 mg/kg. To compare the metabolic effects of corylin, parameters such as body weights, liver weights and white adipocytes tissue (WAT) weights from epididymal, inguinal and axilla subcutaneous were measured at the end of the treatment.

[8] = tested on: Male C57BL/6 mice on high-fat diet; assay: Intraperitoneal glucose tolerance testing in mice; type: in vivo, mouse; details: mice fasted 16 hours, 2 g/kg glucose, 0-120 min; FIG. 12
Procedure: as §1, with “treatment. […] For intraperitoneal glucose tolerance testing, mice were fasted for 16 hours and then injected with 2 g/kg of glucose solution. For insulin tolerance testing, mice were fasted for 3 hours and then injected with 1.2 U/kg insulin. Serum blood glucose levels were measured at 0, 15, 30, 60, 90, and 120 min after glucose and insulin injection.” for “treatment.”

[9] = tested on: Male C57BL/6 mice on high-fat diet; assay: Insulin tolerance testing in mice; type: in vivo, mouse; details: mice fasted 3 hours, 1.2 U/kg insulin, 0-120 min; FIG. 13
Procedure: as §1, with “treatment. […] For intraperitoneal glucose tolerance testing, mice were fasted for 16 hours and then injected with 2 g/kg of glucose solution. For insulin tolerance testing, mice were fasted for 3 hours and then injected with 1.2 U/kg insulin. Serum blood glucose levels were measured at 0, 15, 30, 60, 90, and 120 min after glucose and insulin injection.” for “treatment.”

Molecule | inhibition of adipocytes' differentiation [1] | yeast cells' passage number (replicative life span) [2] | cells' aging (SA-βgal positive cells) [3] | interference of SIRT1 inhibitor EX-527 with corylin's effect on S6K phosphorylation ([4]; U2OS cells pre-treated with EX-527 for 1 hour, then 100 μM corylin, FIG. 5) | S6K phosphorylation ([4]; U2OS cells, different concentrations, FIG. 4) | S6K phosphorylation caused by insulin [5] | ICAM-1 expression caused by lipopolysaccharide [6] | body weight ([7]; FIG. 9) | liver weight ([7]; FIG. 10) | intraperitoneal glucose tolerance (serum blood glucose) [8] | insulin tolerance (serum blood glucose) [9]
Oc1ccc(C=Cc2cc(O)cc(O)c2)cc1 [resveratrol, reference compound] | inhibition of adipocytes' differentiation | – | – | – | – | – | – | – | – | – | –
corylin | more obvious than that caused by resveratrol | can increase yeast cells' passage number | can inhibit the cells' aging in dose-dependent manner | cannot interfere with the S6K phosphorylation caused by corylin | can suppress S6K phosphorylation in dose-dependent manner | can suppress such phosphorylation caused by insulin | can inhibit ICAM-1 expression caused by lipopolysaccharide | has an effect on the reduction of body weight | has an effect on the reduction of | can lower intraperitoneal glucose tolerance | can lower
